These results are taken from ChEMBL document CHEMBL4823280, “Efficient Synthesis of Icetexane Diterpenes and Apoptosis Inducing Effect by Upregulating BiP-ATF4-CHOP Axis in Colorectal Cells” (J Nat Prod, 2021).

The test system of series [1] is HCT-116. Put plainly: Cytotoxicity against human HCT-116 cells assessed as reduction in cell viability measured after 48 hrs by MTT assay. The series is classed as functional, cell-based. The settings on record: HCT-116, 48 h. A general note: Formazan colour is commonly taken as a measure of viable cells.
A further series concerns COLO 205. Nature of the series: Cytotoxicity against human COLO 205 cells assessed as reduction in cell viability measured after 48 hrs by MTT assay. The format is functional, cell-based. The conditions noted are these: COLO 205, 48 h.
A further series relates to Caco-2. Nature of the series: Cytotoxicity against human Caco-2 cells assessed as reduction in cell viability measured after 48 hrs by MTT assay. The series is classed as functional, cell-based. The settings on record: Caco-2, 48 h.
Series [2] can be described thus: Stability of the compound in human HCT-116 cells assessed as Demethylsalvicanol-Quione formation measured after 72 hrs by HPLC analysis. The series is classed as ADME, cell-based. The settings on record: hct-116, 72 h.
The test system of series [3] is HCT-116. Nature of the series: Inhibition of colony formation in human HCT-116 cells at 1.25 to 10 uM incubated for 14 days by crystal violet staining based analysis. The series is classed as functional, cell-based. The settings on record: dose 1.25-10 µM, time 14.0 day.
Series [4] deals with HCT-116. Nature of the series: Induction of apoptosis in human HCT-116 cells assessed as early apoptotic cells at 5 uM measured after 24 hrs by Annexin V-FITC/PI staining based flow cytometry analysis (Rvb= 7.48%). The format is functional. On the technique in general: In flow cytometry, cells or beads pass a laser one at a time.
The subject of series [5] is HCT-116. Nature of the series: Induction of apoptosis in human HCT-116 cells assessed as early apoptotic cells at 10 uM measured after 24 hrs by Annexin V-FITC/PI staining based flow cytometry analysis (Rvb= 7.48%). The series is classed as functional.
Series [6] deals with HCT-116. Nature of the series: Induction of ER stress in human HCT-116 cells assessed as increase in BiP protein expression measured after 6 hrs by western blotting analysis. The series is classed as functional, cell-based. The settings on record: dose 5-20 µM. On the technique in general: A western blot detects proteins with antibodies after separation by electrophoresis.
Series [7] concerns HCT-116. Nature of the series: Induction of ER stress in human HCT-116 cells assessed as upregulation of ATF4 expression at 5 to 20 uM measured after 6 hrs by western blotting analysis. The format is functional, cell-based. The conditions noted are these: dose 5-20 µM.
Series [8] has as its system HCT-116. Put plainly: Induction of ER stress in human HCT-116 cells assessed as upregulation of CHOP expression at 5 to 20 uM measured after 6 hrs by western blotting analysis. The series is classed as functional, cell-based. The settings on record: dose 5-20 µM.
In series [9] the test system is HCT-116. Nature of the series: Induction of ER stress in human HCT-116 cells assessed as increase in BiP nuclear translocation at 2.5 to 10 uM measured after 6 hrs by DAPI based immunostaining analysis. The series is classed as functional, cell-based. The settings on record: dose 2.5-10 µM.
Series [10] deals with HCT-116. Nature of the series: Induction of ER stress in human HCT-116 cells assessed as colocalization of BiP with ATF4 at 20 uM measured after 12 hrs by immunofluorescence staining analysis. The series is classed as functional, cell-based.
For series [11], the system named is HCT-116. Nature of the series: Induction of apoptosis in human HCT-116 cells assessed as viable cells at 5 uM measured after 24 hrs by Annexin V-FITC/PI staining based flow cytometry analysis (Rvb= 88.45%). The series is classed as functional. The settings on record: read-out: Activity.
In series [12] the test system is HCT-116. Put plainly: Induction of apoptosis in human HCT-116 cells assessed as late apoptotic cells at 5 uM measured after 24 hrs by Annexin V-FITC/PI staining based flow cytometry analysis (Rvb= 2.89%). The format is functional.
The subject of series [13] is HCT-116. Put plainly: Induction of apoptosis in human HCT-116 cells assessed as necrotic cells at 5 uM measured after 24 hrs by Annexin V-FITC/PI staining based flow cytometry analysis (Rvb= 1.18%). The format is functional.
Series [14] relates to HCT-116. Put plainly: Induction of apoptosis in human HCT-116 cells assessed as viable cells at 10 uM measured after 24 hrs by Annexin V-FITC/PI staining based flow cytometry analysis (Rvb= 88.45%). The series is classed as functional. The settings on record: read-out: Activity.
Series [15] has as its system HCT-116. Put plainly: Induction of apoptosis in human HCT-116 cells assessed as late apoptotic cells at 10 uM measured after 24 hrs by Annexin V-FITC/PI staining based flow cytometry analysis (Rvb= 2.89%). The format is functional.
The test system of series [16] is HCT-116. Nature of the series: Induction of apoptosis in human HCT-116 cells assessed as necrotic cells at 10 uM measured after 24 hrs by Annexin V-FITC/PI staining based flow cytometry analysis (Rvb= 1.18%). The format is functional.

Active and inactive are the calls of the source. The calls are words filed in the database; no cut-off is given here. A value given as a limit tells only on which side of the number the result lay.

Usually IC50 stands for the point on the concentration scale where inhibition reaches its midpoint. Regarding `O=c1[nH]cc(F)c(=O)[nH]1` [FLUOROURACIL], the values for the half-inhibitory concentration (IC50) with HCT-116 [1], with COLO 205 and in the series on Caco-2 were 7.38 µM, 5.29 µM and 7.77 µM, respectively.

Regarding `CC(=O)Oc1c(C(C)C)cc2c(c1OC(C)=O)C[C@@]13O[C@@H]1CCC(C)(C)[C@@H]3CC2`, the concentration for half-maximal inhibition (IC50) was found to be 11.1 µM in the series on HCT-116 [1], 7.52 µM in the series with COLO 205 and 13.8 µM in the series with Caco-2.

For `CC(=O)Oc1c(C(C)C)cc2c(c1OC(C)=O)CC1=CCCC(C)(C)[C@@H]1CC2`, the values for the IC50 with HCT-116 [1], with COLO 205 and in the series with Caco-2 were 18.6 µM, 18.5 µM and 10.4 µM, respectively.

On to `CC(C)c1cc2c(c(O)c1O)C[C@@]13CCCC(C)(C)[C@@H]1C[C@@H]2O3` [BRUSSONOL], for which the IC50 in the series with HCT-116 [1], with COLO 205 and with Caco-2 was over 20.2 µM throughout.

With `CC(C)C1=CC2=C(C[C@@]34CCCC(C)(C)[C@@H]3C[C@@H]2O4)C(=O)C1=O`, the IC50 is 13.3 µM in the series with HCT-116 [1], 10.4 µM with COLO 205 and 3.86 µM in the series with Caco-2.

`CC(C)C1=CC2=C(C[C@@]3(O)CCCC(C)(C)[C@@H]3CC2)C(=O)C1=O`: the 50% inhibitory concentration (IC50) amounted to 2.93 µM in the series on HCT-116 [1], 3.18 µM in the series on COLO 205 and 2.71 µM in the series on Caco-2.

Regarding `CC(C)c1cc2c(c(O)c1O)C=C1C=CCC(C)(C)[C@@H]1CC2`, the figures for the 50% inhibitory concentration (IC50) with HCT-116 [1], in the series on COLO 205 and with Caco-2 were 10.6 µM, 7.81 µM and 7.2 µM, respectively.

`CC(C)c1cc2c(c(O)c1O)C[C@@]1(O)CCCC(C)(C)[C@@H]1CC2`: the 50% inhibitory concentration (IC50) in the series on HCT-116 [1] is 18.8 µM; in the series with COLO 205 it was 11.2 µM; in the series with Caco-2, 3.07 µM.

`CC(C)c1cc2c(c(O)c1O)CC1=CCCC(C)(C)[C@@H]1CC2`: the values for the IC50 with HCT-116 [1], with COLO 205 and with Caco-2 were over 20.9 µM, over 20.9 µM and 13.7 µM, respectively.

For the compound `CC(C)c1cc2c(c3c1O[C@@]1(C(C)C)C(=O)C(=O)C4=C(CC[C@H]5C(C)(C)CCC[C@]5(O)C4)[C@H]1O3)C[C@@]1(O)CCCC(C)(C)[C@@H]1CC2`, the values for the IC50 in the series with HCT-116 [1], in the series with COLO 205 and in the series on Caco-2 were 2.7 µM, 3.39 µM and 2.69 µM, respectively. Also, the Stabilty entry in [2] is recorded as “Stable”. Also, in the series on HCT-116 [3], the inhibition entry is “Active”. The Activity in the series with HCT-116 [4] is 14.73%; in the series with HCT-116 [5], 13.38%; with HCT-116 [6], “Dose-Dependent Effect”; with HCT-116 [12], 16.43%; in the series with HCT-116 [13], 5.28%; in the series on HCT-116 [15] it was 19.84%. In addition, the Activity with HCT-116 [16] is listed as 7.97%. Besides, the outcome in the series on HCT-116 [7], in the series on HCT-116 [8], in the series on HCT-116 [9] and in the series on HCT-116 [10] was Active. Also, the viability at 5 µM in the series on HCT-116 [11] turned out to be 63.6%. Further, the viability at 10 µM in the series on HCT-116 [14] was 58.8%.
